Measured values reported in patent publication US8735387B2, “Oxazolopyrimidines as Edg-1 receptor agonists” (Sanofi, priority 2008, dated 2014).

Biological target: T1, human Edg-1 receptor (Homo sapiens, UniProt P21453)
T1 construct: expressed in transfected cells; membrane preparation
Experiment: GTP-γ-S assay using human Edg-1 receptors (scintillation proximity assay, membrane preparation from CHO Flp-In cell line)
Format: biochemical
Settings: example compound at 10 μM; relative to 10 μM S1P; GTP-γ-S SPA, human Edg-1 membranes
How it was run: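 Scintillation proximity GTP-γ-S binding assay measuring receptor activation. Membranes prepared from a CHO Flp-In line stably overexpressing N-terminally FLAG-tagged human Edg-1.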

T1 sequence (P21453 whole entry): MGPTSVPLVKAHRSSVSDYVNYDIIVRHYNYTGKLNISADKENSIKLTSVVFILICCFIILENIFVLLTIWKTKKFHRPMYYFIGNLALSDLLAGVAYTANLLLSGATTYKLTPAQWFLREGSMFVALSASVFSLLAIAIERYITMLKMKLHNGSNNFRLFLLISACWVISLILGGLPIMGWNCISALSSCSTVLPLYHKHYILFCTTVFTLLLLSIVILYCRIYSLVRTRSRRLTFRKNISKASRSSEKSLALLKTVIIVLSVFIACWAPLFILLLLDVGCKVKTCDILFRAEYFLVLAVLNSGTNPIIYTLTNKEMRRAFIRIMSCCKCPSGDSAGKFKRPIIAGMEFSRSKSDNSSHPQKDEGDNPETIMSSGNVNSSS

Row | % Activation (Edg-1 receptor activation in percent of the activation by 10 μM S1P) [%] | Compound
1 | 142 | CCCOc1nc(Cc2ccc(Cl)cc2)nc2oc(-c3cc(C)c(OCCCNCc4nnn[nH]4)c(C)c3)nc12 [Example 227]
2 | 107 | CCOc1nc(Cc2ccc(Cl)cc2)nc2oc(-c3cc(C)c(OCC(=O)N4CC(C(=O)O)C4)c(C)c3)nc12 [Example 228]
3 | 70 | CCCOc1nc(Cc2ccc(Cl)cc2)nc2oc(-c3cc(C)c(OCCCN[C@@H](CCSC)C(=O)OC)c(C)c3)nc12 [Example 229]
4 | 101 | CCCOc1nc(Cc2ccc(Cl)cc2)nc2oc(-c3cc(C)c(OCCCNCCC(=O)OC(C)(C)C)c(C)c3)nc12 [Example 230]
5 | 104 | CCCOc1nc(Cc2ccc(Cl)cc2)nc2oc(-c3cc(C)c(OCC(=O)N4CC[C@H](O)C4)c(C)c3)nc12 [Example 231]
6 | 125 | CCCOc1nc(Cc2ccc(Cl)cc2)nc2oc(-c3cc(C)c(OCC(=O)N4CC[C@@H](O)C4)c(C)c3)nc12 [Example 232]
7 | 79 | CCCOc1nc(Cc2ccc(Cl)cc2)nc2oc(-c3cc(C)c(OCC(=O)OCC)c(C)c3)nc12 [Example 233]
8 | 106 | CCOc1nc(Cc2ccc(Cl)cc2)nc2oc(-c3cc(C)c(OCC(=O)NCCN4CCOCC4)c(C)c3)nc12 [Example 234]
9 | 59 | CCCOc1nc(Cc2ccc(Cl)cc2)nc2oc(-c3cc(C)c(OCCc4c(C)noc4C)c(C)c3)nc12 [Example 235]
10 | 102 | CCOc1nc(Cc2ccc(Cl)cc2)nc2oc(-c3cc(C)c(OCC(O)CN4CCOCC4)c(C)c3)nc12 (stereo not drawn) [Example 236]
11 | 115 | CCCOc1nc(Cc2ccc(Cl)cc2)nc2oc(-c3cc(C)c(OCC(O)CNCCC(=O)O)c(C)c3)nc12 (stereo not drawn) [Example 237]
12 | 71 | CCOc1nc(Cc2ccc(Cl)cc2)nc2oc(-c3cc(C)c(OCC(O)CN(CC)CC)c(C)c3)nc12 (stereo not drawn) [Example 238]
13 | 86 | CCOc1nc(Cc2ccc(Cl)cc2)nc2oc(-c3cc(C)c(OCC(=O)N4CCC(C(=O)O)C4)c(C)c3)nc12 (stereo not drawn) [Example 239]
14 | 128 | CCCOc1nc(Cc2ccc(Cl)cc2)nc2oc(-c3cc(C)c(OCC(=O)NCCC(=O)O)c(C)c3)nc12 [Example 241]
15 | 106 | CCCOc1nc(Cc2ccc(Cl)cc2)nc2oc(-c3cc(C)c(OCC(=O)N4CC(C(=O)O)C4)c(C)c3)nc12 [Example 242]
16 | 106 | CCCOc1nc(Cc2ccc(Cl)cc2)nc2oc(-c3cc(C)c(OCC(=O)N4CCC(C(=O)O)C4)c(C)c3)nc12 (stereo not drawn) [Example 243]
17 | 97 | CCCOc1nc(Cc2ccc(Cl)cc2)nc2oc(-c3cc(C)c(OCC(=O)NCCO)c(C)c3)nc12 [Example 244]
18 | 144 | CCCOc1nc(Cc2ccc(Cl)cc2)nc2oc(-c3cc(C)c(OCC(=O)N4CCC[C@H]4C(=O)O)c(C)c3)nc12 [Example 245]
19 | 111 | CCOc1nc(Cc2ccc(Cl)cc2)nc2oc(-c3cc(C)c(OCC(=O)N4CC(C(=O)OC)C4)c(C)c3)nc12 [Example 246]

Row | % Activation (Edg-1 receptor activation in percent of the activation by 10 μM S1P) [%] | Compound
20 | 110 | CCCOc1nc(Cc2ccc(Cl)cc2)nc2oc(-c3cc(C)c(OCC(=O)OCC(=O)O)c(C)c3)nc12 [Example 247]
21 | 89 | CCCOc1nc(Cc2ccc(Cl)cc2)nc2oc(-c3cc(C)c(OCC(=O)OC)c(C)c3)nc12 [Example 248]
22 | 104 | CCOc1nc(Cc2ccc(Cl)cc2)nc2oc(-c3cc(C)c(OCC(=O)NCCN(C)C)c(C)c3)nc12 [Example 249]
23 | 72 | CCOc1nc(Cc2ccc(Cl)cc2)nc2oc(-c3cc(C)c(OCC(=O)NCC(=O)OC(C)(C)C)c(C)c3)nc12 [Example 250]
24 | 112 | CCCOc1nc(Cc2ccc(Cl)cc2)nc2oc(-c3cc(C)c(OCCCC(=O)O)c(C)c3)nc12 [Example 251]
25 | 102 | CCCOc1nc(Cc2ccc(Cl)cc2)nc2oc(-c3cc(C)c(OCC(=O)NCc4ccco4)c(C)c3)nc12 [Example 252]
26 | 79 | CCOc1nc(Cc2ccc(Cl)cc2)nc2oc(-c3cc(C)c(OCC(=O)O)c(C)c3)nc12 [Example 253]
27 | 86 | CCCOc1nc(Cc2ccc(Cl)cc2)nc2oc(-c3cc(C)c(OCC(=O)NCC4CC4)c(C)c3)nc12 [Example 254]
28 | 74 | CCOc1nc(Cc2ccc(Cl)cc2)nc2oc(-c3cc(C)c(OCC(=O)NCCC(=O)OC(C)(C)C)c(C)c3)nc12 [Example 255]
29 | 69 | CCCOc1nc(Cc2ccc(Cl)cc2)nc2oc(-c3cc(C)c(OCC(=O)NCC(=O)OC(C)(C)C)c(C)c3)nc12 [Example 256]
30 | 122 | CCOc1nc(Cc2ccc(Cl)cc2)nc2oc(-c3cc(C)c(OCC(O)CNCc4ccccc4)c(C)c3)nc12 (stereo not drawn) [Example 257]
31 | 97 | CCOc1nc(Cc2ccc(Cl)cc2)nc2oc(-c3cc(C)c(OCC(O)CNC(=O)CO)c(C)c3)nc12 (stereo not drawn) [Example 258]
32 | 66 | CCOc1nc(Cc2ccc(Cl)cc2)nc2oc(-c3cc(C)c(OCC(O)CN(C(C)C)C(C)C)c(C)c3)nc12 (stereo not drawn) [Example 259]
33 | 95 | CCOc1nc(Cc2ccc(Cl)cc2)nc2oc(-c3cc(C)c(OCC(O)CNC(=O)C4(O)CC4)c(C)c3)nc12 (stereo not drawn) [Example 260]
34 | 86 | CCOc1nc(Cc2ccc(Cl)cc2)nc2oc(-c3cc(C)c(OCC(O)CNC4CCC(C(F)(F)F)CC4)c(C)c3)nc12 (stereo not drawn) [Example 261]
35 | 43 | CCOc1nc(Cc2ccc(Cl)cc2)nc2oc(-c3cc(C)c(OCC(O)CNC4CCN(CC(C)C)CC4)c(C)c3)nc12 (stereo not drawn) [Example 262]
36 | 138 | CCOc1nc(Cc2ccc(Cl)cc2)nc2oc(-c3cc(C)c(OCC(O)CN)c(C)c3)nc12 (stereo not drawn) [Example 263]
37 | 55 | CCOc1nc(Cc2ccc(Cl)cc2)nc2oc(-c3cc(C)c(OCC(O)CN(C)C)c(C)c3)nc12 (stereo not drawn) [Example 264]
38 | 132 | CCOc1nc(Cc2ccc(Cl)cc2)nc2oc(-c3cc(C)c(OCC(O)CNC4CCC(C)CC4)c(C)c3)nc12 (stereo not drawn) [Example 265]

Same assay, conditions: example compound at 10 μM; relative to 10 μM S1P; GTP-γ-S SPA, human Edg-1 membranes; read-out: % Activation (Edg-1 receptor activation in percent of the activation by 10 μM S1P)

Row | activation at 10 µM [%] | Compound
39 | 123 | CCOc1nc(Cc2ccc(Cl)cc2)nc2oc(-c3cc(C)c(OCC(=O)NCC(=O)O)c(C)c3)nc12 [Example 240, (2-{4-[5-(4-chloro-benzyl)-7-ethoxy-oxazolo[5,4-d]pyrimidin-2-yl]-2,6-dimethyl-phenoxy}-acetylamino)-acetic acid]
